Assay results taken from US10906905B2, “Five-membered heteroaryl ring bridged ring derivative, preparation method therefor and medical use thereof” (Jiangsu Hengrui Medicine Co., Ltd., priority 2016, dated 2021).

Assays:
[1] = molecular target: TGFβRI kinase ALK5 (Homo sapiens (Human), UniProt P36897); assay: Inhibition of TGFβRI kinase ALK5 activity (TGFβRI kinase assay kit, ADP-Glo); format: biochemical; details: ATP 50 μM; read-out: IC50 of inhibition effect on TGFβRI kinase ALK5 activity
Description: The inhibition effect of TGFβRI kinase activity in vitro was determined by the following method.
The inhibition effect of the compounds of the present invention on TGFβRI kinase ALK5 activity was determined by the following experimental method:
(§1) TGFβRI kinase assay kit (V4093, Promega) was used to assay enzyme activity. 2 μl of enzyme solution (the final concentration of enzyme in the reaction system was 2 ng/μL) formulated with reaction buffer (40 mM Tris pH 7.5, 20 mM MgCl2, 0.1 mg/ml BSA), 1 μl of a 3-fold gradient dilution of the compounds dissolved in 5% DMSO, and 2 μl of a mixed solution of ATP and TGFβRI substrate peptide (the final concentration of ATP was 50 μM, and the final concentration of substrate was 0.2 μg/μL) were added successively to a 384-well plate (4514, Corning). After reaction at 27° C. for 2.5 hours, 5 μl of ADP-Glo solution in the kit was added to each well, then the plate was placed at 27° C. for 40 minutes. 10 μl of kinase assay reagent was then added to each well, then the plate was placed at 27° C. for 30 minutes. The chemiluminescence signal values were measured with a Victor 3 (PerkinElmer) multi-function microplate reader. The IC50 values of the compounds for enzyme inhibition were calculated using Graphpad prism software based on each concentration of the compound and the corresponding signal value thereof.

[2] = system: NIH3T3 cell; assay: Inhibition of NIH3T3 cell proliferation (CellTiter-Glo); format: cell-based; details: Mus musculus, 72 hours, 0.5% FBS
Description: The inhibition effect of the compounds of the present invention on NIH3T3 cell proliferation was determined by the following in vitro test.
The inhibition effect of the compounds of the present invention on NIH3T3 cell proliferation was determined by the following experimental method:
On a 96-well white plate with transparent bottom (3903, Corning), 100 μL of NIH3T3 cell (GNM6, Cell Bank of Typical Culture Collection Committee of Chinese Academy of Sciences) was seeded in a DMEM medium containing 10% FBS in each well. The seeding density is 2000 cells/well. The cells were incubated overnight at 37° C., 5% CO2. After overnight incubation, each well was replaced with 90 μL of DMEM medium containing 0.5% FBS. 10 μl of a 3-fold gradient dilution of the compounds with DMEM medium containing 0.5% FBS was then added, and the plate was incubated for 72 hours in a cell incubator at 37° C., 5% CO2. Finally, 50 μL of CellTiter-Glo (G7573, Promega) was added to each well. After incubation for 10 minutes at room temperature, the chemiluminescence signal values were measured with a Victor 3 microplate reader (PerkinElmer). The IC50 values of the compounds were calculated using Graphpad Prism software based on each concentration of the compound and the corresponding signal value thereof.

[3] = system: Smad signaling pathway of TGFβRI; assay: Inhibition of Smad signaling pathway of TGFβRI (3TP-lux luciferase reporter in HepG2 cell); format: cell-based; details: Homo sapiens; HepG2 cell, 3TP-lux plasmid, 18 hours; read-out: IC50 on the inhibition of Smad signaling pathway of TGFβRI
Description: The inhibition effect of the compounds of the present invention on Smad signaling pathway of TGFβRI was determined by the following in vitro test.
The inhibition effect of the compounds of the present invention on Smad signaling pathway of TGFβRI was determined by the following experimental method:
The seeding density is 2.5×10^4 cells/well. The cells were incubated overnight at 37° C., 5% CO2. Each well was replaced with fresh EMEM medium containing 10% FBS. […] The cells were further incubated for 24 hours at 37° C., 5% CO2. Each well was replaced with 90 μL of EMEM medium containing 0.5% FBS, then the cells were starved for 6 hours. The compounds were formulated as a 20 mM stock solution, which was diluted in gradient to a 400× concentration with 100% DMSO, and further 40-fold diluted with EMEM containing 0.5% FBS. The cell culture plate was taken out, then 10 μl of diluted compound or control (0.25% DMSO) was added to each well respectively. The plate was shaken gently, then incubated for 18 hours in an incubator at 37° C., 5% CO2. Finally, 100 μl of detection reagent ONE-Glo™ Luciferase Assay (E6110, Promega) was added to each well, and the plate was placed in dark at room temperature for 10 minutes. The chemiluminescence signal values were measured with a Victor 3.0 (PerkinElmer). The IC50 values of the compounds were calculated using Graphpad Prism software based on each concentration of the compound and the corresponding signal value thereof.

[4] = Pharmacokinetics assay in rats after intragastrical administration; format: in vivo; details: both sexes, Sprague-Dawley, rat, plasma, po, SD rats, 2 mg/kg; for Vd/F: read-out: Apparent distribution volume Vz/F; for AUC: read-out: Area under curve AUC; for CL/F: read-out: Clearance CLz/F; for half-life: read-out: Half-life T1/2 (converted); for Cmax: read-out: Plasma concentration Cmax; for MRT: read-out: Residence time MRT
Description: Rats were used as test animals. The drug concentration in plasma at different time points was determined by LC/MS/MS method after intragastrical administration of the compounds of Examples 1-1, 1-2, 2-1, 3-1, the compound with retention time of 6.631 minutes among Examples 9-1 and 9-2, and the compounds of Examples 33 and 39-1 to rats. The pharmacokinetic behavior of the compounds of the present invention was studied and evaluated in rats.
Compounds of Examples 1-1, 1-2, 2-1, 3-1, compound with retention time of 6.631 minutes among Examples 9-1 and 9-2, and compounds of Examples 33 and 39-1.
Twenty-eight healthy adult Sprague-Dawley (SD) rats (half male and half female) were purchased from SINO-BRITISH SIPPR/BK LAB. ANIMAL LTD., CO, with Certificate No.: SCXK (Shanghai) 2008-0016, and equally divided into 7 groups (4 rats per group).
A certain amount of the test compound was weighed, and added with 5% by volume of DMSO, 5% by volume of Tween 80, and 90% by volume of physiological saline were added to prepare a 0.2 mg/mL colorless, clear and transparent solution.
After an overnight fast, SD rats were administered intragastrically the test compounds at an administration dosage of 2.0 mg/kg and an administration volume of 10.0 mL/kg.
The rats were intragastrically administered the compounds of Examples 1-1, 1-2, 2-1, 3-1, the compound with retention time of 6.631 minutes among Examples 9-1 and 9-2, and the compounds of Examples 33 and 39-1.0.2 mL of blood was taken from the orbital sinus before administration and at 0.5, 1.0, 2.0, 4.0, 6.0, 8.0, 11.0 and 24.0 hours after administration. The samples were stored in heparinized tubes, and centrifuged for 10 minutes at 4° C. at 3,500 rpm to separate the blood plasma. The plasma samples were stored at −20° C. The rats were fed 2 hours after administration.
The content of the test compounds in the plasma of rats after intragastrical administration of the test compounds at different concentrations was determined: 25 μL of rat plasma at each time after administration was taken, added with 50 μL (100 ng/mL) of the internal standard solution of camptothecin and 175 μL of acetonitrile, shaken vertically for 5 minutes, and centrifuged for 10 minutes (4000 rpm). 3.0 μL of the supernatant was taken from the plasma samples for LC/MS/MS analysis.

[5] = molecular target: p38α kinase (Homo sapiens (Human), UniProt Q16539); assay: Inhibition of p38α kinase activity (p38α kinase assay kit, ADP-Glo); format: biochemical; details: ATP 50 μM; read-out: IC50 of inhibition effect on p38α kinase activity
Description: The inhibition of p38α kinase activity in vitro was determined by the following method.
The inhibition effect of the compounds of the present invention on p38a kinase activity was determined by the following experimental method:
as §1, with “p38α kinase” for “TGFβRI kinase”, “kit (V9591,” for “kit (V4093,”, “was 0.5” for “was 2”, “and p38” for “and TGFβRI”, “compounds on” for “compounds for”

Sequence of TGFβRI kinase ALK5 (P36897 34-503): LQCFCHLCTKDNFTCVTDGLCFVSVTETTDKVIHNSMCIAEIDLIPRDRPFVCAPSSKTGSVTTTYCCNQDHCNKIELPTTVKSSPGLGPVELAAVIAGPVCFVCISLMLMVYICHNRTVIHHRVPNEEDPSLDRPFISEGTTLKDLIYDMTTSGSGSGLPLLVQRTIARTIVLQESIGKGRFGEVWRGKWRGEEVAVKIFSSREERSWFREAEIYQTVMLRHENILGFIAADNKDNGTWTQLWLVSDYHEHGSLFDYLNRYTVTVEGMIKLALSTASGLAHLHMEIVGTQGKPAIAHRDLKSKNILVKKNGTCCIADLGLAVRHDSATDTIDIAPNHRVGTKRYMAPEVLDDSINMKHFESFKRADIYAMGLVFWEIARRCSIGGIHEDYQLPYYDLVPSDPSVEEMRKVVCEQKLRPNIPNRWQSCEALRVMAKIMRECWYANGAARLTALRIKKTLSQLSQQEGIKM
Sequence of p38α kinase (Q16539 whole entry): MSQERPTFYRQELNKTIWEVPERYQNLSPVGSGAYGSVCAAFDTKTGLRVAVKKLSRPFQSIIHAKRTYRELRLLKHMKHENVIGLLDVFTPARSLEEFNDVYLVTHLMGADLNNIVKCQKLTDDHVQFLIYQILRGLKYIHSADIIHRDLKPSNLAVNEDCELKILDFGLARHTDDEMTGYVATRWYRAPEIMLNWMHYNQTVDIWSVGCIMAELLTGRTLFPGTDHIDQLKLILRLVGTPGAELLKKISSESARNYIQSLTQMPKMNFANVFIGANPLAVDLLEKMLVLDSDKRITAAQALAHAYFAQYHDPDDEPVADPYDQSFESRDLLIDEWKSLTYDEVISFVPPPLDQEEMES

Structure (SMILES)	IC50 [1]	IC50 [3]	Vd/F [4]	AUC [4]	CL/F [4]	half-life [4]	Cmax [4]	MRT [4]	IC50 [5]	IC50 [2]
Cc1cccc(-c2nc3n(c2-c2ccc4ncc(OCCO)nc4c2)C2CCC3C2)n1 (stereo not drawn) [Example 7, 2-((7-(2-(6-Methylpyridin-2-yl)-5,6,7,8-tetrahydro-5,8-methanoimidazo[1,2-a]pyridin-3-yl)quinoxalin-2-yl)oxy)ethanol]	20 nM	6 nM								23 nM
Cc1cccc(-c2nc3n(c2-c2cc4cnccc4s2)C2CCC3C2)n1 (stereo not drawn) [Example 10, 2-(2-(6-Methylpyridin-2-yl)-5,6,7,8-tetrahydro-5,8-methanoimidazo[1,2-a]pyridin-3-yl) thieno[3,2-c]pyridine]	25 nM	23 nM								41 nM
Cc1cccc(-c2nc3n(c2-c2ccc4ncnn4c2)C2CCC3C2)n1 (stereo not drawn) [Example 11, 3-([1,2,4]Triazolo[1,5-a]pyridin-6-yl)-2-(6-methylpyridin-2-yl)-5,6,7,8-tetrahydro-5,8-methanoimidazo[1,2-a]pyridine]	16 nM	26 nM								37 nM
Cc1cccc(-c2nn3c(c2-c2ccc4ncnn4c2)C2CCC3CC2)n1 [Example 38, 3-([1,2,4]Triazolo[1,5-a]pyridin-6-yl)-2-(6-methylpyridin-2-yl)-4,5,6,7-tetrahydro-4,7-ethanopyrazolo[1,5-a]pyridine]	9 nM	11 nM								33 nM
NC(=O)c1ccnc2ccc(-c3c(-c4ccccn4)nc4n3[C@H]3CC[C@@H]4C3)cc12 [Example 45-1, 6-((5S,8R)-2-(Pyridin-2-yl)-5,6,7,8-tetrahydro-5,8-methanoimidazo[1,2-a]pyridin-3-yl) quinoline-4-carboxamide]	29 nM	32 nM								51 nM

The next lines start with results.

IC50 [1]	IC50 [3]	Vd/F [4]	AUC [4]	CL/F [4]	half-life [4]	Cmax [4]	MRT [4]	IC50 [5]	Structure (SMILES)	IC50 [2]
14 nM	57 nM								Cc1cccc(-c2nc3n(c2-c2ccc4nccc(C(N)=O)c4c2)C2CCC3C2)n1 (stereo not drawn) [Example 1, 6-(2-(6-Methylpyridin-2-yl)-5,6,7,8-tetrahydro-5,8-methanoimidazo[1,2-a]pyridin-3-yl) quinoline-4-carboxamide]	80 nM
16 nM	15 nM	14.6 ± 7.63 L/kg	475 ± 267 ng·h/mL	89.2 ± 47.4 mL/min/kg	1.92 ± 0.14 h	146 ± 81 ng/mL	3.53 ± 0.93 h		Cc1cccc(-c2nc3n(c2-c2ccc4nccc(C(N)=O)c4c2)[C@@H]2CC[C@H]3C2)n1 [Example 1-2, 6-((5R,8S)-2-(6-Methylpyridin-2-yl)-5,6,7,8-tetrahydro-5,8-methanoimidazo[1,2-a]pyridin-3-yl)quinoline-4-carboxamide]	
26 nM	21 nM								Cc1cccc(-c2nc3n(c2-c2ccc4nccnc4c2)C2CCC3C2)n1 (stereo not drawn) [Example 6, 2-(6-Methylpyridin-2-yl)-3-(quinoxalin-6-yl)-5,6,7,8-tetrahydro-5,8-methanoimidazo[1,2-a]pyridine]	22 nM
43 nM	82 nM								NC(=O)c1nnc2ccc(-c3c(-c4ccc(F)cn4)nc4n3C3CCC4C3)cn12 (stereo not drawn) [Example 9, 6-(2-(5-Fluoropyridin-2-yl)-5,6,7,8-tetrahydro-5,8-methanoimidazo[1,2-a]pyridin-3-yl)-[1,2,4]triazolo[4,3-a]pyridine-3-carboxamide]	91 nM
9 nM	33 nM							454 nM	Cc1cccc(-c2nc3n(c2-c2ccnc(-c4cnn(C)c4)c2)C2CCC3C2)n1 (stereo not drawn) [Example 12, 3-(2-(1-Methyl-1H-pyrazol-4-yl)pyridin-4-yl)-2-(6-methylpyridin-2-yl)-5,6,7,8-tetrahydro-5,8-methanoimidazo[1,2-a]pyridine]	13 nM
34 nM	87 nM	16.4 ± 10.7 L/kg	228 ± 159 ng·h/mL	193 ± 95 mL/min/kg	0.973 ± 0.3 h	178 ± 113 ng/mL	1.2 ± 0.35 h	563 nM	Cc1cccc(-c2nn3c(c2-c2ccnc(-c4ccc(S(C)(=O)=O)cc4)c2)C2CCC3CC2)n1 [Example 33, 2-(6-Methylpyridin-2-yl)-3-(2-(4-(methylsulfonyl)phenyl)pyridin-4-yl)-4,5,6,7-tetrahydro-4,7-ethanopyrazolo[1,5-a]pyridine]	
